Source: US8293374B2, “Test system for evaluating the compatibility of biologically active substances with copolymers” (Abbott GmbH & Co. KG, priority 2002, dated 2012)

Experiments:
[1] = Thermodynamic saturation solubility in test solvent, HPLC of clear supernatant after stirring 24 hours (method b); type: physicochemical
Procedure: Quantitative determination of the solubility is possible for example in the following way: • a) A concentration series is prepared by bringing various amounts of biologically active substance into contact with a constant amount of test solvent in parallel tests. After an equilibration time over a defined period at a given temperature, preferably with blending, e.g. stirring for 24 hours or ultrasound treatment for 30 min, the maximum concentration at which clear solutions are obtained is found. The solubility of the biologically active substance is between the concentration at which a clear solution is obtained but at the next concentration no clear solution is obtained. • b) An amount of the test solvent which is insufficient for completely dissolving is added to an amount of the biologically active substance, or further amounts of biologically active substance are added to the solution until the added amount no longer completely dissolves. After an equilibration time over a defined period at a given temperature, preferably with blending, e.g. stirring for 24 hours or ultrasound treatment for 30 min, a sample of the clear supernatant is taken. The mixture can for this purpose be previously centrifuged, e.g. using an ultracentrifuge at 8000 to 12 000 rpm. The concentration of the biologically active substance is determined in the sample of the clear supernatant, e.g. by high pressure liquid chromatography (HPLC). The value which is found corresponds to the solubility of the biologically active substance.
(§1) The copolymer was simulated by a mixture of 1,3-bis-(pyrrolidon-1-yl)butane and 1,4-diacetoxybutane in the ratio of 6:4 by weight.
In an alternative determination method, 150 mg of lopinavir were mixed with 350 mg of the test solvent and stirred at room temperature for 24 hours. The sample was then centrifuged at 12 000 rpm for one minute. The clear supernatant was investigated by HPLC.
Example 1b) was repeated but with the test solvent containing 5% by weight Cremophor RH 40.
Example 1b) was repeated with the abovementioned active ingredient premix. 21.3% by weight lopinavir was found in the clear supernatant by HPLC.
Example 3a) was repeated, using the concentrations indicated in the table below, and with the test solvent containing 10% by weight Cremophor RH 40. […] The HPLC method led to a result of 21.7% for lopinavir.

[2] = Maximum solubility in test solvent after ultrasound treatment, HPLC of supernatant (method c); type: physicochemical
Procedure: However, the active ingredient loading in solid solutions can be increased greatly by energy input. The maximum active ingredient loading achievable in a given matrix of a copolymer can be predicted with the test system of the invention by determining the solubility of the biologically active substance in accordance with one of the aforementioned methods a) or b), the equilibration being carried out by heating to a temperature of, for example, 140° C., in particular from 110 to 140° C., or by sonication.
as §1
The maximum solubility was determined by mixing 60 mg of lopinavir with 140 mg of the test solvent and treating with ultrasound at room temperature for 30 min. The solvent was then centrifuged at 10 000 rpm for 10 min. A sample of the clear supernatant was investigated by HPLC. […] The remaining amount of the sample was stored at room temperature for 4 weeks. Then a further sample of the supernatant was taken and investigated by HPLC. A concentration of 28.87% by weight was found.

solubility ([1]; 150 mg lopinavir + 350 mg test solvent 6:4, stirred at room temperature 24 hours, HPLC of clear supernatant): 24.9 % by weight
solubility ([1]; HPLC of supernatant, test solvent containing 5% by weight Cremophor RH 40): 22.8%
lopinavir found in the clear supernatant ([1]; HPLC, lopinavir/ritonavir premix 4:1 by weight, test solvent 6:4): 21.3 % by weight
thermodynamic saturation solubility, HPLC method ([1]; lopinavir/ritonavir premix 4:1, test solvent containing 10% by weight Cremophor RH 40): 21.7%
maximum solubility ([2]; 60 mg lopinavir + 140 mg test solvent, ultrasound at room temperature 30 min, HPLC of supernatant): 39.72 % by weight
concentration in supernatant after storage ([2]; after ultrasound treatment, sample stored at room temperature for 4 weeks, HPLC): 28.87 % by weight
SMILES: Cc1cccc(C)c1OCC(=O)N[C@@H](Cc1ccccc1)[C@@H](O)C[C@H](Cc1ccccc1)NC(=O)[C@H](C(C)C)N1CCCNC1=O [Lopinavir]
influence of Cremophor RH 40 on thermodynamic saturation solubility ([1]; 5% by weight Cremophor RH 40 in test solvent versus none): reduces the thermodynamic saturation solubility
influence of ritonavir on thermodynamic saturation solubility ([1]; presence of ritonavir (premix 4:1) versus lopinavir alone): reduces the thermodynamic saturation solubility
